# Reference: US20240360114A1 (SIRONAX LTD., priority 2021, published 2024)
# Test system: HT-1080 cells
# Assay: HT-1080 cell viability assay (ferroptosis induced by RSL3, Cell Titer-Glo)
# Assay type: cell-based
# Conditions: Homo sapiens, HT-1080, 20 h, ferroptosis inducer RSL3, 20 hours, ferroptosis inhibitory activity, Table 2
# Method: Example 2. Determination of EC50 Values in HT-1080 Cell Viability Assay
# HT-1080 (ATCC, CCL-121) cells (6000 in 100 μl) were seeded in 96-well plates (Corning) and cultured in a 37° C. incubator with a humidified atmosphere of 5% CO2 for overnight. Cells were then treated with ferroptosis inducer RSL3 (TargetMol) and a 3-fold, 10-point serial dilution series of compounds with 1.1 μM as the highest concentration, for 20 hours. Cell viability was assessed using the Cell Titer-Glo Kit (Promega). The luminescence intensity was measured with a microplate reader (Envision, PerkinElmer), and cell viability was calculated by normalizing the data to untreated controls. The EC50 values of the compounds (e.g., Compounds 1-573 and 574-661) were calculated in GraphPad Prism (GraphPad Software, Inc., San Diego, CA, USA). The curves were fitted using a non-linear regression model with a sigmoidal dose response.
row,SMILES,EC50 [nM]
1,"Cc1ccc(NC2CCC(CN)CC2)cc1C (centres unmarked) [Compound 282, N-(4-(aminomethyl)cyclohexyl)-3,4-dimethylaniline]",100 to 1000
2,"Cc1nc(N2CCC3(CCOCC3)C2)ccc1NC1CC2(CC(N)C2)C1 (centres unmarked) [Compound 507, N2-(2-methyl-6-(8-oxa-2-azaspiro[4.5]decan-2-yl)pyridin-3-yl)spiro[3.3]heptane-2,6-diamine]",100 to 1000
3,"CC1(C)CCC(c2ccc(NCCN3CCCC3=O)cc2)CC1 [Compound 104, 1-(2-((4-(4,4-dimethylcyclohexyl)phenyl)amino)ethyl) pyrrolidin-2-one]",100 to 1000
4,"CC(C)C1CCN(c2ncc(NC3CC4(CC(NCC(F)F)C4)C3)cn2)CC1 (centres unmarked) [Compound 413, N2-(2,2-difluoroethyl)-N6-(2-(4-isopropylpiperidin-1-yl)pyrimidin-5-yl)spiro[3.3]heptane-2,6-diamine]",0.1 to 100
5,"CC1CN(c2ccc3cc(NC4CC5(CC(N)C5)C4)ccc3n2)CC(C)N1CC(F)(F)F (centres unmarked) [Compound 567, N2-(2-(3,5-dimethyl-4-(2,2,2-trifluoroethyl)piperazin-1-yl)quinolin-6-yl)spiro-[3.3]heptane-2,6-diamine]",0.1 to 100
6,"CN(C)CC1CCC(Nc2ccc(C(C)(C)C)cc2)CC1 (centres unmarked) [Compound 196, 4-(tert-butyl)-N-(4-((dimethylamino)methyl)cyclohexyl)aniline]",0.1 to 100
7,"Cc1nc(N2CCOCC2)ccc1NC1C2CC3CC1CC(CN)(C3)C2 (centres unmarked) [Compound 538A, N-((2r,5s)-5-(aminomethyl)adamantan-2-yl)-2-methyl-6-morpholinopyridin-3-amine]",0.1 to 100
8,"CCC(C)(C)c1ccc(NC2CC(CN)C2)cc1 (centres unmarked) [Compound 333, N-(3-(aminomethyl)cyclobutyl)-4-(tert-pentyl)aniline]",0.1 to 100
9,"CC1CN(c2ccc(NC3CC4(CC(N)C4)C3)cc2F)CC(C)O1 (centres unmarked) [Compound 457, N2-(4-(2,6-dimethylmorpholino)-3-fluorophenyl)spiro[3.3]heptane-2,6-diamine]",100 to 1000
10,"Cc1cc(NC2CCC(N)CC2)cc(C)c1C (single isomer, unassigned) [Compound 182A, N1-(3,4,5-trimethylphenyl)cyclohexane-1,4-diamine]",100 to 1000
11,"CC1(C)CCC(C)(C)c2cc(NC[C@H]3CC[C@H](N)CC3)ccc21 [Compound 338, N-(((1r,4r)-4-aminocyclohexyl)methyl)-5,5,8,8-tetramethyl-5,6,7,8-tetrahydronaphthalen-2-amine]",0.1 to 100
12,"CCOCCOC1CCN(c2ccc(NC3CC4(CC(N)C4)C3)c(C)c2)CC1 (centres unmarked) [Compound 470, N2-(4-(4-(2-ethoxyethoxy)piperidin-1-yl)-2-methylphenyl)spiro[3.3]heptane-2,6-diamine]",0.1 to 100
13,"N[C@H]1CC[C@H](CNc2ccc(N3CCC(C(F)(F)F)CC3)nc2)CC1 [Compound 398, N-(((1r,4r)-4-aminocyclohexyl)methyl)-6-(4-(trifluoromethyl)piperidin-1-yl)pyridin-3-amine]",0.1 to 100
14,"CCOC1CCN(c2ccc(NC3CC4(CC(N)C4)C3)c(C)c2)CC1 (centres unmarked) [Compound 471, N2-(4-(4-ethoxypiperidin-1-yl)-2-methylphenyl)spiro[3.3]heptane-2,6-diamine]",0.1 to 100
15,"COCCCCNc1ccc(N2CCC(C(F)(F)F)CC2)cc1 [Compound 12, N-(4-methoxybutyl)-4-(4-(trifluoromethyl)piperidin-1-yl)aniline]",0.1 to 100
16,"CC(C)C1CCN(c2ncc(NC3C4CC5CC3CC(N)(C5)C4)cn2)CC1 (centres unmarked) [Compound 368, N4-(2-(4-isopropylpiperidin-1-yl)pyrimidin-5-yl)adamantane-1,4-diamine]",0.1 to 100
17,"CN(C)C1CCC(Nc2ccc(C(C)(C)C)cc2)CC1 (single isomer, unassigned) [Compound 193A, N1-(4-(tert-butyl)phenyl)-N4,N4-dimethylcyclohexane-1,4-diamine]",100 to 1000
18,"C[C@H]1CN(c2ccc(NC[C@H]3CC[C@H](N)CC3)cc2F)C[C@H](C)O1 [Compound 478, N-(((1r,4S)-4-aminocyclohexyl)methyl)-4-((2S,6S)-2,6-dimethylmorpholino)-3-fluoroaniline]",0.1 to 100
19,"CN1CCC(NC(=O)C2CCC(Nc3ccc(C4CCC(C)(C)CC4)cc3)CC2)CC1 (centres unmarked) [Compound 77, 4-((4-(4,4-dimethylcyclohexyl)phenyl)amino)-N-(1-methylpiperidin-4-yl)cyclohexane-1-carbox amide]",0.1 to 100
20,"Cc1cc(N2CCCCC2)ccc1NC1CC2(CC(N)C2)C1 (centres unmarked) [Compound 380, N2-(2-methyl-4-(piperidin-1-yl)phenyl)spiro[3.3]heptane-2,6-diamine]",0.1 to 100

row,SMILES,EC50 [nM]
1,"CC1(C)CCC(c2ccc(NC3CCC(C(N)=O)C3)cc2)CC1 (single isomer, unassigned) [Compound 146A, 3-((4-(4,4-dimethylcyclohexyl)phenyl)amino)cyclopentane-1-carboxamide]",0.1 to 100
2,"CC(C)C1CCN(c2ccc(NC3CCC(N)CC3)cc2)CC1 (centres unmarked) [Compound 63, N1-(4-(4-isopropylpiperidin-1-yl)phenyl)cyclohexane-1,4-diamine]",0.1 to 100
3,"NC1CCC(Nc2cnc(N3CCC(C(F)(F)F)CC3)cn2)CC1 (centres unmarked) [Compound 52, N1-(5-(4-(trifluoromethyl)piperidin-1-yl)pyrazin-2-yl)cyclohexane-1,4-diamine]",0.1 to 100
4,"c1cc(C2CCCCC2)ccc1NC1CNC1 [Compound 109, N-(4-cyclohexylphenyl)azetidin-3-amine]",100 to 1000
5,CC1(C)CCC(c2ccc(NC3CCC(NC(=O)[C@H]4CNC(=O)N4)CC3)cc2)CC1 (some centres unmarked) [Compound 156C],0.1 to 100
6,"Cn1cc(NCC2CCC(Nc3ccc(C(C)(C)C)cc3)CC2)cn1 (centres unmarked) [Compound 346, N-((4-((4-(tert-butyl)phenyl)amino)cyclohexyl)methyl)-1-methyl-1H-pyrazol-4-amine]",0.1 to 100
7,"COc1cc(N2CC(C)OC(C)C2)ccc1NC[C@H]1CC[C@H](N)CC1 (some centres unmarked) [Compound 497, N-(((1r,4r)-4-aminocyclohexyl)methyl)-4-(2,6-dimethylmorpholino)-2-methoxyaniline]",0.1 to 100
8,"CC1CC(c2ccc(NC3CCC(N)CC3)cc2)CC(C)O1 (centres unmarked) [Compound 138, N1-(4-(2,6-dimethyltetrahydro-2H-pyran-4-yl)phenyl)cyclohexane-1,4-diamine]",100 to 1000
9,"Cc1nc(N2CC(C)OC(C)C2)c(F)cc1NC1C2CC3CC1CC(N)(C3)C2 (centres unmarked) [Compound 519, N4-(6-(2,6-dimethylmorpholino)-5-fluoro-2-methylpyridin-3-yl)adamantane-1,4-diamine]",0.1 to 100
10,"CC1CCC(Nc2ccc(C(C)(C)C)cc2)CC1 (centres unmarked) [Compound 334, 4-(tert-butyl)-N-(4-methylcyclohexyl)aniline]",100 to 1000
11,"CC(C)(C)c1ccc(NC(CCO)CCO)cc1 [Compound 234, 3-((4-(tert-butyl)phenyl)amino) pentane-1,5-diol]",1000 to 10000
12,"CC1(C)CCC(C)(C)c2cc(NC3CCC(N)CC3)ccc21 (centres unmarked) [Compound 265, N1-(5,5,8,8-tetramethyl-5,6,7,8-tetrahydronaphthalen-2-yl)cyclohexane-1,4-diamine]",0.1 to 100
13,"COC1(C)CCN(c2ccc(NC3CC4(CC(N)C4)C3)c(C)n2)CC1 (centres unmarked) [Compound 536, N2-(6-(4-methoxy-4-methylpiperidin-1-yl)-2-methylpyridin-3-yl)spiro[3.3]heptane-2,6-diamine]",0.1 to 100
14,COC1CCN(c2ccc(NC3CC4(CC(N)C4)C3)c(C)n2)CC1 (centres unmarked) [Compound 527],0.1 to 100
15,"CC(C)(C)c1ccc(NC2CCC(N)(CO)CC2)cc1 (single isomer, unassigned) [Compound 213A, (1-amino-4-((4-(tert-butyl)phenyl)amino)cyclohexyl)methanol]",100 to 1000
16,"CC(C)(C)c1ccc(NC2CCC(CCCCCN)CC2)cc1 (centres unmarked) [Compound 326, N-(4-(5-aminopentyl)cyclohexyl)-4-(tert-butyl)aniline]",0.1 to 100
17,"CCC1CCN(c2ccc(NC[C@H]3CC[C@H](N)CC3)c(C)c2)CC1 [Compound 389, N-(((1r,4r)-4-aminocyclohexyl)methyl)-4-(4-ethylpiperidin-1-yl)-2-methylaniline]",0.1 to 100
18,"CCCc1ccc(NC2CCC(CCN)CC2)cc1 (centres unmarked) [Compound 292, N-(4-(2-aminoethyl)cyclohexyl)-4-propylaniline]",0.1 to 100
19,"COCCCOc1cc(NC2CCC(N)CC2)ccc1C(C)(C)C (centres unmarked) [Compound 300A, N1-(4-(tert-butyl)-3-(3-methoxypropoxy)phenyl)cyclohexane-1,4-diamine]",0.1 to 100

# Same assay, conditions: Homo sapiens, HT-1080, 20 h, ferroptosis inducer RSL3, 20 hours, ferroptosis inhibitory activity, Table 3
row,SMILES,EC50 [nM]
1,"NC1CC2(C1)CC(Nc1ccc3cc(N4CCC(O)(C(F)(F)F)CC4)ccc3c1)C2 (centres unmarked) [Compound 620, 1-(6-((6-aminospiro[3.3]heptan-2-yl)amino)naphthalen-2-yl)-4-(trifluoromethyl)piperidin-4-ol]",0.1 to 100
2,"CCc1cc(N2C[C@@H](C)O[C@@H](C)C2)ccc1NC1CC2(CC(N)C2)C1 (stereo partly drawn) [Compound 640, N2-(4-((25,6R)-2,6-dimethylmorpholino)-2-ethylphenyl)spiro[3.3]heptane-2,6-diamine]",0.1 to 100
3,Cc1nc(N2C[C@@H](C)O[C@@H](C)C2)ccc1NC12CCC(N)(CC1)C2 [Compound 627],100 to 1000
4,Cc1nc(N2CCC(C(C)(C)O)CC2)ccc1NC1CC2(CC(N)C2)C1 (centres unmarked) [Compound 599],100 to 1000

# Same assay, conditions: ferroptosis inducer RSL3, 20 hours, ferroptosis inhibitory activity, Table 2
row,SMILES,EC50 [nM]
1,"CC1(N)CCC(Nc2ccc3c(c2)CCCC3)CC1 (centres unmarked) [Compound 285, 1-methyl-N4-(5,6,7,8-tetrahydronaphthalen-2-yl)cyclohexane-1,4-diamine]",0.1 to 100
